Reference: ChEMBL document CHEMBL6083291, “Discovery of Thiochroman Derivatives as Potent, Oral Selective Estrogen Receptor Degraders and Antagonists for the Treatment of Endocrine-Resistant Breast Cancer” (J Med Chem, 2024)

What was measured:
[1] = Cmax in Sprague-Dawley rat plasma at 20 mg/kg, po measured for 10 hrs by LC-MS/MS analysis; type: ADME, organism-based
[2] = Tmax in Sprague-Dawley rat plasma at 20 mg/kg, po measured for 10 hrs by LC-MS/MS analysis; type: ADME, organism-based
[3] = Tmax in Sprague-Dawley rat brain at 20 mg/kg, po measured for 10 hrs by LC-MS/MS analysis; type: ADME, organism-based
[4] = Toxicity in Sprague-Dawley rat assessed as thickened endometrium in uterus at 10 mg/kg, po qd for 3 days by Hematoxylin-Eosin staining based analysis; type: organism-based; conditions: in vivo, 72 h, time 3 day
animal or person [5] = conditions: Homo sapiens, Tamoxifen-resistant MCF7, po, 504 h, read-out: TGI
[6] = MRT in Sprague-Dawley rat brain at 20 mg/kg, po measured for 10 hrs by LC-MS/MS analysis; type: ADME, organism-based
[7] = Half life in Sprague-Dawley rat plasma at 2 mg/kg, iv measured for 24 hrs by LC-MS/MS analysis; type: ADME, organism-based
[8] = Tmax in Sprague-Dawley rat plasma at 10 mg/kg, po measured for 24 hrs by LC-MS/MS analysis; type: ADME, organism-based
[9] = Antiproliferative activity against endocrine-resistant human MCF7 Tam1 cells assessed as inhibition of cell growth; conditions: Tamoxifen-resistant MCF7
[10] = Half life in Sprague-Dawley rat plasma at 20 mg/kg, po measured for 10 hrs by LC-MS/MS analysis; type: ADME, organism-based
[11] = MRT in Sprague-Dawley rat plasma at 10 mg/kg, po measured for 24 hrs by LC-MS/MS analysis; type: ADME, organism-based
[12] = Cmax in Sprague-Dawley rat brain at 20 mg/kg, po measured for 10 hrs by LC-MS/MS analysis; type: ADME, organism-based
[13] = AUC(0 to t) in Sprague-Dawley rat plasma at 20 mg/kg, po measured for 10 hrs by LC-MS/MS analysis; type: ADME, organism-based
[14] = Oral bioavailability in Sprague-Dawley rat at 10 mg/kg measured for 24 hrs by LC-MS/MS analysis; type: ADME, organism-based; conditions: in vivo
[15] = MRT in Sprague-Dawley rat plasma at 2 mg/kg, iv measured for 24 hrs by LC-MS/MS analysis; type: ADME, organism-based
[16] = Toxicity against Balb/c mouse xenografted with human MCF7 Tam1 cells assessed as changes in body weight at 10 to 30 mg/kg, po qd for 21 days; type: organism-based; conditions: in vivo, 504 h, dose 10-30 mg/kg, time 21 day
[17] = Cmax in Sprague-Dawley rat plasma at 10 mg/kg, po measured for 24 hrs by LC-MS/MS analysis; type: ADME, organism-based
MDA-MB-361 = test: Antiproliferative activity against human MDA-MB-361 cells assessed as reduction in cell viability
MCF7 [18] = test: Antiproliferative activity against human MCF7 cells harboring ER-alpha Y537S mutant assessed as inhibition of cell growth
[19] = C0 in Sprague-Dawley rat plasma at 2 mg/kg, iv by LC-MS/MS analysis; type: ADME, organism-based
[20] = Ratio of drug level in brain to plasma in Sprague-Dawley rat at 20 mg/kg, po measured for 10 hrs by LC-MS/MS analysis; type: ADME, organism-based; conditions: brain and plasma
BT-474 = test: Antiproliferative activity against human BT-474 cells assessed as reduction in cell viability
[21] = Volume of distribution at steady state in Sprague-Dawley rat plasma at 2 mg/kg, iv measured for 24 hrs by LC-MS/MS analysis; type: ADME, organism-based; conditions: read-out: Vdss
[22] = MRT in Sprague-Dawley rat plasma at 20 mg/kg, po measured for 10 hrs by LC-MS/MS analysis; type: ADME, organism-based
[23] = Half life in Sprague-Dawley rat plasma at 10 mg/kg, po measured for 24 hrs by LC-MS/MS analysis; type: ADME, organism-based
animal or person [24] = conditions: Homo sapiens, Tamoxifen-resistant MCF7, po, 504 h, read-out: TGI; remark: listed apart in the source
[25] = AUC(0 to t) in Sprague-Dawley rat plasma at 2 mg/kg, iv measured for 24 hrs by LC-MS/MS analysis; type: ADME, organism-based
[26] = Half life in Sprague-Dawley rat brain at 20 mg/kg, po measured for 10 hrs by LC-MS/MS analysis; type: ADME, organism-based
MCF7 [27] = test: Antiproliferative activity against human MCF7 cells assessed as reduction in cell viability incubated for 6 days by CellTiter-Glo reagent based luminescence analysis; conditions: mcf7
[28] = Clearance in Sprague-Dawley rat plasma at 2 mg/kg, iv measured for 24 hrs by LC-MS/MS analysis; type: ADME, organism-based
[29] = AUC(0 to t) in Sprague-Dawley rat brain at 20 mg/kg, po measured for 10 hrs by LC-MS/MS analysis; type: ADME, organism-based; conditions: in vivo
T47D = test: Antiproliferative activity against human T47D cells assessed as reduction in cell viability
CAMA-1 = test: Antiproliferative activity against human CAMA-1 cells assessed as reduction in cell viability
[30] = AUC(0 to t) in Sprague-Dawley rat plasma at 10 mg/kg, po measured for 24 hrs by LC-MS/MS analysis; type: ADME, organism-based
[31] = Toxicity in Sprague-Dawley rat assessed as thickened endometrium in uterus at 60 mg/kg, po qd for 3 days by Hematoxylin-Eosin staining based analysis; type: organism-based; conditions: in vivo, 72 h, time 3 day
[32] = Estrogenic like activity in Sprague-Dawley rat assessed as increase in ratio of uterine wet weight to body weight at 60 mg/kg, po qd for 3 days relative to control; type: toxicity, organism-based; conditions: in vivo, 72 h, time 3 day
[33] = Ratio of drug level in brain to plasma in mouse; type: ADME; conditions: brain and plasma

COc1cc(F)ccc1[C@H]1CSc2cc(O)ccc2[C@H]1c1ccc(OCCN2CC(CF)C2)cc1 showed a Cmax [1] of 509 ng/mL, a Tmax [2] of 6 h and a Tmax [3] of 6 h. The Activity [4] was “Non-toxic”, the inhibition in vivo at 30 mg/kg (animal or person [5]) was 64.5% and the MRT [6] was 12.4 h. It also gave a half-life [7] of 4 h, a Tmax [8] of 3 h and an IC50 [9] of 5.37 nM. For the same compound, the half-life [10] was 5.6 h, the MRT [11] was 13.4 h and the Cmax [12] was 1470 ng/g. The AUC(0-t) at 10 h [13] was 3660 ng·h/mL, the bioavailability [14] was 19.9% and the MRT [15] was 5.24 h. For the same compound, the Activity [16] was “Non-toxic”, the Cmax [17] was 198 ng/mL and the IC50 (MDA-MB-361) was roughly 15 nM. It also gave an IC50 (MCF7 [18]) of 10.6 nM, a C0 [19] of 741 ng/mL and a Kp at 10 h [20] of 3.05. It also gave an IC50 (BT-474) of 4 nM, a Vd [21] of 6.6 L/kg and an MRT [22] of 10.6 h. It also gave a half-life [23] of 8.9 h, an inhibition in vivo at 10 mg/kg (animal or person [24]) of 26.8% and an AUC(0-t) at 24 h [25] of 1370 ng·h/mL. It also gave a half-life [26] of 7 h, an IC50 (MCF7 [27]) of 0.25 nM and a clearance [28] of 23.3 mL/min/kg. The AUCt [29] was 11170 ng·h/g, the IC50 (T47D) was 4 nM and the IC50 (CAMA-1) was 4 nM. The AUC(0-t) at 24 h [30] was 1360 ng·h/mL.
With CC/C(=C(\c1ccc(O)cc1)c1ccc(OCCN(C)C)cc1)c1ccccc1 [AFIMOXIFENE] the Activity [31] was “Toxic” and the “fold change (FC)” value [32] was 2.
CCNCCc1ccc(CN(CC)c2cc(OC)ccc2[C@@H]2CCc3cc(O)ccc3C2)cc1 [ELACESTRANT] showed a Kp [33] of 0.36.
